Experimental data: the supplement of paper PMC11208160

Assay: recombinant barcode read abundance after kanamycin selection (control-corrected) (log10(CPM+1)); higher = more efficient recombination; sequences stand for … in AGTGCAGAGAAAATCGGCCAGTTTTCTCTGCCTGCAGTCCGCATGCCGT…AGATTTATGCAGCGGACTGCCTTTCTCCCAAAGTGATAAACCGGACAGTATCATGGACCGGTTTTCCCGGTAATCCGTATTTGCAAGGTTGGTTTCACT; site = the 11-nt target
Outline: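 In E. coli, a pooled library matched targets to IS621 bridge RNA target-binding loops and was introduced alongside a donor plasmid. Cells went onto chloramphenicol/ampicillin/kanamycin with 0.1 mM IPTG or onto chloramphenicol/ampicillin LB agar as control, in duplicate. Recombination efficiency, from recombinant-junction barcodes as counts per million, is averaged and control-corrected. It is reported as log10(CPM+1).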
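Also: IS621 recombinase and bridge RNA in Escherichia coli cells.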

| Sequence | recombinant barcode read abundance (log10) |
| --- | --- |
| AGTATATCTTGGGTTCTAACCTGTTGCCT (site GGCATATCTAG) | 0.171 |
| AGTATCCCTTGGGTTCTAACCTGTTGCCG (site AGTATCCCTCG) | 0.461 |
| AGTATCCCTTGGGTTCTAACCTGTTGCCG (site GTCTCATCTAT) | 0.2 |
| AGTATGACTTGGGTTCTAACCTGTTGCCT (site AGTATGACTAG) | 0.923 |
| AGTATGACTTGGGTTCTAACCTGTTGCCT (site CGTATGACTAG) | 0.304 |
| AGTATGACTTGGGTTCTAACCTGTTGCCT (site GGTATGACTAG) | 0.0345 |
| AGTATGACTTGGGTTCTAACCTGTTGCCT (site TGTATGACTAG) | 0.0581 |
| AGTCATACTTGGGTTCTAACCTGTTGCTT (site AGTCATACTAA) | 0.199 |
| AGTCATACTTGGGTTCTAACCTGTTGCTT (site AGTCGGACTAA) | 0.0739 |
| AGTCGACCTTGGGTTCTAACCTGTTGCCT (site AGTCGACCTAG) | 1.78 |
| AGTCGACCTTGGGTTCTAACCTGTTGCCT (site CGTCGACCTAG) | 0.328 |
| AGTCGACCTTGGGTTCTAACCTGTTGCCT (site GGTCGACCTAG) | 0.112 |
| AGTCGACCTTGGGTTCTAACCTGTTGCCT (site TGTCGACCTAG) | 0.143 |
| AGTCGTTCTTGGGTTCTAACCTGTTGCCT (site AGTCGTTCTAG) | 0.23 |
| AGTCGTTCTTGGGTTCTAACCTGTTGCCT (site GAGTTCACTCT) | 0.141 |
| AGTCTAGCTTGGGTTCTAACCTGTTGCCC (site AGTCTAGCTAG) | 0.421 |
| AGTCTAGCTTGGGTTCTAACCTGTTGCCC (site AGTCTAGCTCG) | 1.16 |
| AGTCTAGCTTGGGTTCTAACCTGTTGCCC (site AGTCTAGCTGG) | 1.11 |
| AGTCTAGCTTGGGTTCTAACCTGTTGCCC (site AGTCTAGCTTG) | 0.149 |
| AGTCTAGCTTGGGTTCTAACCTGTTGCTC (site AGTCTAGCTGA) | 0.336 |
| AGTCTAGCTTGGGTTCTAACCTGTTGCTC (site AGTCTAGCTTA) | 0.62 |
| AGTCTGCCTTGGGTTCTAACCTGTTGCTG (site AGTCTGCCTCA) | 0.686 |

| Sequence | recombinant barcode read abundance (log10) |
| --- | --- |
| AGTCTGCCTTGGGTTCTAACCTGTTGCTG (site GCCGATACTTG) | 0.0929 |
| AGTCTGGCTTGGGTTCTAACCTGTTGCCT (site AGTCTGGCTAG) | 0.146 |
| AGTCTGGCTTGGGTTCTAACCTGTTGCCT (site TGTCTGGCTAG) | 0.108 |
| AGTGACTCTTGGGTTCTAACCTGTTGCCT (site AGTCTCTCTAG) | 0.0765 |
| AGTGACTCTTGGGTTCTAACCTGTTGCCT (site AGTGACTCTAG) | 2.32 |
| AGTTCCACTTGGGTTCTAACCTGTTGCCT (site AGTTACACTAG) | 0.0694 |
| AGTTCCACTTGGGTTCTAACCTGTTGCCT (site AGTTCCACTAG) | 0.324 |
| AGTTCCACTTGGGTTCTAACCTGTTGCCT (site AGTTGCACTAG) | 0.0253 |
| AGTTCCACTTGGGTTCTAACCTGTTGCCT (site AGTTTCACTAG) | 0.102 |
| AGTTCGTCTTGGGTTCTAACCTGTTGCCG (site AGCTCGTCTCC) | 0.29 |
| AGTTCGTCTTGGGTTCTAACCTGTTGCCG (site AGTTCGTCTCG) | 0.314 |
| AGTTCTCCTTGGGTTCTAACCTGTTGCCG (site AGTTCTCCTCG) | 0.0496 |
| AGTTCTCCTTGGGTTCTAACCTGTTGCCG (site GAGCAGGCTAA) | 0.0339 |
| AGTTGTCCTTGGGTTCTAACCTGTTGCAT (site AGTTGTCCTAA) | 0.0625 |
| AGTTGTCCTTGGGTTCTAACCTGTTGCAT (site AGTTGTCCTAC) | 0.0713 |
| AGTTGTCCTTGGGTTCTAACCTGTTGCAT (site AGTTGTCCTAG) | 0.0326 |
| AGTTGTCCTTGGGTTCTAACCTGTTGCAT (site AGTTGTCCTAT) | 0.219 |
| AGTTGTCCTTGGGTTCTAACCTGTTGCTT (site AGTTGTCCTAA) | 0.126 |
| AGTTGTCCTTGGGTTCTAACCTGTTGCTT (site AGTTGTCCTAC) | 0.0653 |
| AGTTGTCCTTGGGTTCTAACCTGTTGCTT (site AGTTGTCCTAG) | 0.0387 |
| AGTTGTCCTTGGGTTCTAACCTGTTGCTT (site AGTTGTCCTAT) | 0.0416 |
| AGTTTCACTTGGGTTCTAACCTGTTGCCT (site AGTTACACTAG) | 0.11 |

| Sequence | recombinant barcode read abundance (log10) |
| --- | --- |
| AGTTTCACTTGGGTTCTAACCTGTTGCCT (site AGTTCCACTAG) | 0.0621 |
| AGTTTCACTTGGGTTCTAACCTGTTGCCT (site AGTTGCACTAG) | 0.0233 |
| AGTTTCACTTGGGTTCTAACCTGTTGCCT (site AGTTTCACTAG) | 0.0755 |
| ATAAAGACTTGGGTTCTAACCTGTTGCCT (site ATAAAGACTAG) | 1.96 |
| ATAAAGACTTGGGTTCTAACCTGTTGCCT (site ATCAAGACTAG) | 0.181 |
| ATAAAGACTTGGGTTCTAACCTGTTGCCT (site ATGAAGACTAG) | 0.212 |
| ATAAAGACTTGGGTTCTAACCTGTTGCCT (site ATTAAGACTAG) | 0.586 |
| ATAAATGCTTGGGTTCTAACCTGTTGCCT (site ATAAATGCTAG) | 1.34 |
| ATAAATGCTTGGGTTCTAACCTGTTGCCT (site ATAAGGGCTAG) | 0.0428 |
| ATAACAGCTTGGGTTCTAACCTGTTGCCT (site ATAAAAGCTAG) | 0.224 |
| ATAACAGCTTGGGTTCTAACCTGTTGCCT (site ATAACAGCTAG) | 1.43 |
| ATAACAGCTTGGGTTCTAACCTGTTGCCT (site ATAAGAGCTAG) | 0.279 |
| ATAACAGCTTGGGTTCTAACCTGTTGCCT (site ATAATAGCTAG) | 0.0968 |
| ATAACGGCTTGGGTTCTAACCTGTTGCCT (site ATAACGGCTAG) | 0.434 |
| ATAACGGCTTGGGTTCTAACCTGTTGCCT (site GACGGACCTTA) | 0.0648 |
| ATAAGTGCTTGGGTTCTAACCTGTTGCCA (site ATAAGTGCTTG) | 1.15 |
| ATAAGTGCTTGGGTTCTAACCTGTTGCCA (site GTGAGTGCTTG) | 0.0783 |
| ATAATAGCTTGGGTTCTAACCTGTTGCAT (site ATAATAGCTAT) | 2.02 |
| ATAATAGCTTGGGTTCTAACCTGTTGCAT (site GTAATAGCTAT) | 0.0687 |
| ATACGGACTTGGGTTCTAACCTGTTGCTA (site ATAAGGACTTA) | 0.0991 |
| ATACGGACTTGGGTTCTAACCTGTTGCTA (site ATACGGACTTA) | 2.04 |
| ATACGGACTTGGGTTCTAACCTGTTGCTA (site ATAGGGACTTA) | 0.186 |

| Sequence | recombinant barcode read abundance (log10) |
| --- | --- |
| ATACGGACTTGGGTTCTAACCTGTTGCTA (site ATATGGACTTA) | 0.0991 |
| ATACTCTCTTGGGTTCTAACCTGTTGCCT (site AGACTCTCTAG) | 0 |
| ATACTCTCTTGGGTTCTAACCTGTTGCCT (site ATACTCTCTAG) | 2.43 |
| ATAGAGTCTTGGGTTCTAACCTGTTGCCG (site ATAGAGTCTCG) | 1.95 |
| ATAGAGTCTTGGGTTCTAACCTGTTGCCG (site GCTCCTCCTAT) | 0.173 |
| ATAGGTACTTGGGTTCTAACCTGTTGCTT (site ATAGGTACTAA) | 1.65 |
| ATAGGTACTTGGGTTCTAACCTGTTGCTT (site CTAGGTACTAA) | 0.534 |
| ATAGGTCCTTGGGTTCTAACCTGTTGCTG (site ATAGGTCCTCA) | 2.91 |
| ATAGGTCCTTGGGTTCTAACCTGTTGCTG (site ATGGGTCCTCG) | 0.0247 |
| ATATGAGCTTGGGTTCTAACCTGTTGCCA (site ATATGAGCTTG) | 0.884 |
| ATATGAGCTTGGGTTCTAACCTGTTGCCA (site TTATGAGCTCG) | 0.0938 |
| ATATGTACTTGGGTTCTAACCTGTTGCCG (site ATATGTACTCG) | 1.07 |
| ATATGTACTTGGGTTCTAACCTGTTGCCG (site ATATGTACTTG) | 0.167 |
| ATATGTCCTTGGGTTCTAACCTGTTGCAG (site ATAGGACCTCT) | 0 |
| ATATGTCCTTGGGTTCTAACCTGTTGCAG (site ATATGTCCTCT) | 1.88 |
| ATATTATCTTGGGTTCTAACCTGTTGCCA (site ATATGATCTAG) | 0.0788 |
| ATATTATCTTGGGTTCTAACCTGTTGCCA (site ATATTATCTTG) | 0.29 |
| ATATTGTCTTGGGTTCTAACCTGTTGCCA (site ATATTGCCTAG) | 0.0374 |
| ATATTGTCTTGGGTTCTAACCTGTTGCCA (site ATATTGTCTTG) | 0.611 |
| ATCACTACTTGGGTTCTAACCTGTTGCCT (site ATCACTACTAG) | 0.207 |
